In the experiment the target is T1, MAGL (Homo sapiens, UniProt Q99685).
T1 sequence (Q99685 1-303): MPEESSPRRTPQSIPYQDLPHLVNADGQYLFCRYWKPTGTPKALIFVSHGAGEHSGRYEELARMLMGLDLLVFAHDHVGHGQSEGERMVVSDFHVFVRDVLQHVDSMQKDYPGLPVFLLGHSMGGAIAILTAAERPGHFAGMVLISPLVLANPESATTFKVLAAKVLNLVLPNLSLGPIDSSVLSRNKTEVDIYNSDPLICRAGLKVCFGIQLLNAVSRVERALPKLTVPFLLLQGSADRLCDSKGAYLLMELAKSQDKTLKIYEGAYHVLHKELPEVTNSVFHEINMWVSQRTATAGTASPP
Description: 2-AG assay (MAGL inhibitory activity, hydrolysis of 2-arachidonoylglycerol followed by mass spectrometry). The following applies: 50 pM MAGL, 8 μM 2-arachidonoylglycerol, 15 min preincubation, 30 min incubation at RT, concentration range 12.5 μM to 0.8 pM. The format is biochemical. The procedure: Compounds were profiled for MAGL inhibitory activity by determining the enzymatic activity by following the hydrolysis of the natural substrate 2-arachidonoylglycerol resulting in arachidonic acid, which can be followed by mass spectrometry. This assay is hereinafter abbreviated “2-AG assay”.
The 2-AG assay was carried out in 384 well assay plates (PP, Greiner Cat #784201) in a total volume of 20 μL. Compound dilutions were made in 100% DMSO (VWR Chemicals 23500.297) in a polypropylene plate in 3-fold dilution steps to give a final concentration range in the assay from 12.5 μM to 0.8 pM. 0.25 μL compound dilutions (100% DMSO) were added to 9 μL MAGL in assay buffer (50 mM TRIS (GIBCO, 15567-027), 1 mM EDTA (Fluka, 03690-100 mL), 0.01% (v/v) Tween. After shaking, the plate was incubated for 15 min at RT. To start the reaction, 10 μL 2-arachidonoylglycerol in assay buffer was added. The final concentrations in the assay was 50 pM MAGL and 8 μM 2-arachidonoylglyerol. After shaking and 30 min incubation at RT, the reaction was quenched by the addition of 40 μL of ACN containing 4 μM of d8-arachidonic acid. The amount of arachidonic acid was traced by an online SPE system (Agilent Rapidfire) coupled to a triple quadrupole mass spectrometer (Agilent 6460). A C18 SPE cartridge (G9205A) was used in an ACN/water liquid setup. The mass spectrometer was operated in negative electrospray mode following the mass transitions 303.1→259.1 for arachidonic acid and 311.1→267.0 for d8-arachidonic acid. The activity of the compounds was calculated based on the ratio of intensities [arachidonic acid/d8-arachidonic acid].

Consider `O=C(CCCc1cnn[nH]1)N1CC(c2ccc(N3CCC(C(F)(F)F)C3)nc2)C1` (racemic) [Example 45, rac-4-(1H-Triazol-5-yl)-1-[3-[6-[3-(trifluoro-methyl)pyrrolidin-1-yl]-3-pyridyl]azetidin-1-yl]butan-1-one], for which the 50% inhibitory concentration (IC50) – broadly, the point on the concentration scale where inhibition reaches its midpoint – amounted to 321 nM.
In turn, `O=C1CCC(CCC(=O)N2CC(c3ccc(CC(F)(F)F)cc3)C2)N1` (single isomer, unassigned) [Example 7, (−)- or (+)-5-[3-Oxo-3-[3-[4-(2,2,2-trifluoroethyl)phenyl]azetidin-1-yl]propyl]pyrrolidin-2-one] displayed a 50% inhibitory concentration (IC50) of 2580 nM.
Take `O=C1CCC(CCC(=O)N2CC(c3ccc(CC(F)(F)F)cc3)C2)N1` (single isomer, unassigned) [Example 8, (+)- or (−)-5-[3-Oxo-3-[3-[4-(2,2,2-trifluoroethyl)phenyl]azetidin-1-yl]propyl]pyrrolidin-2-one]: 26 nM corresponded to half-maximal inhibition (IC50).
Turning to `CC1(CCC(=O)N2CC(OCc3ccc(C(F)(F)F)cc3F)C2)CCC(=O)N1` (single isomer, unassigned) [Example 13, (−)- or (+)-5-[3-[3-[[2-Fluoro-4-(trifluoromethyl)phenyl]methoxy]azetidin-1-yl]-3-oxo-propyl]-5-methyl-pyrrolidin-2-one], the IC50 is not below 12500 nM.
`CC1(CCC(=O)N2CC(c3ccc(C4(C(F)(F)F)CC4)cc3)C2)CCC(=O)N1` (single isomer, unassigned) [Example 15, (−)- or (+)-5-Methyl-5-[3-oxo-3-[3-[4-[1-(trifluoromethyl)cyclopropyl]phenyl]azetidin-1-yl]propyl]pyrrolidin-2-one] displayed an IC50 not below 12500 nM.
For `CC1(CCC(=O)N2CC(c3ccc(C4(C(F)(F)F)CC4)cc3)C2)CCC(=O)N1` (single isomer, unassigned) [Example 16, (+)- or (−)-5-Methyl-5-[3-oxo-3-[3-[4-[1-(trifluoromethyl)cyclopropyl]phenyl]azetidin-1-yl]propyl]pyrrolidin-2-one], the midpoint of inhibition, the IC50, lay at 213 nM.
On to `CC1(CCC(=O)N2CC(c3ccc(Oc4cccc(Cl)c4)nc3)C2)CCC(=O)N1` (single isomer, unassigned) [Example 17, (−)- or (+)-5-[3-[3-[6-(3-Chlorophenoxy)-3-pyridyl]azetidin-1-yl]-3-oxo-propyl]-5-methyl-pyrrolidin-2-one], for which the IC50 was not below 12500 nM.
Take `CC1(CCC(=O)N2CC(c3ccc(Oc4cccc(Cl)c4)nc3)C2)CCC(=O)N1` (single isomer, unassigned) [Example 18, (+)- or (−)-5-[3-[3-[6-(3-Chlorophenoxy)-3-pyridyl]azetidin-1-yl]-3-oxo-propyl]-5-methyl-pyrrolidin-2-one]: half-maximal inhibition (IC50) required 2670 nM.
Compound `CS(=O)(=O)c1ccc(C(c2ccccc2)C2CCN(C(=O)CC[C@@H]3COC(=O)N3)CC2)cc1` (single isomer, unassigned) [Example 83, (+)- or (−)-(4R)-4-[3-[4-[(4-Methyl-sulfonylphenyl)-phenyl-methyl]-1-piperidyl]-3-oxo-propyl]oxazolidin-2-one] yielded an IC50 of 44 nM.
On to `CS(=O)(=O)c1ccc(C(c2ccccc2)C2CCN(C(=O)CC[C@@H]3COC(=O)N3)CC2)cc1` (single isomer, unassigned) [Example 84, (−)- or (+)-(−)-(4R)-4-[3-[4-[(4-Methyl-sulfonylphenyl)-phenyl-methyl]-1-piperidyl]-3-oxo-propyl]oxazolidin-2-one], for which the IC50 was found to be 294 nM.
To `O=C1NC(COC(=O)N2CC(c3ccc(N4CCC(C(F)(F)F)C4)nc3)C2)CO1` (single isomer, unassigned) [Example 86, (−)- or (+)-[(4S)-2-Oxooxazolidin-4-yl]methyl 3-[6-[3-(trifluoromethyl)pyrrolidin-1-yl]-3-pyridyl]azetidine-1-carboxylate] belongs 54 nM; to `O=C1NC(COC(=O)N2CC(c3ccc(N4CCC(C(F)(F)F)C4)nc3)C2)CO1` (single isomer, unassigned) [Example 87, (+)- or (−)-[(4S)-2-Oxooxazolidin-4-yl]methyl 3-[6-[3-(trifluoromethyl)pyrrolidin-1-yl]-3-pyridyl]azetidine-1-carboxylate], 32 nM.
In turn, `O=C1N[C@H](CCC(=O)N2CC(c3ccc([C@H]4CC[C@@H](C(F)(F)F)CC4)nc3)C2)CO1` (single isomer, unassigned) [Example 200] registered a 50% inhibitory concentration (IC50) of 1 nM.
The compound `O=C1N[C@H](CCC(=O)N2CC(c3ccc([C@H]4CC[C@H](C(F)(F)F)CC4)nc3)C2)CO1` (single isomer, unassigned) [Example 201] displayed a half-inhibitory concentration (IC50) of 9 nM. Compared with the last compound, the IC50 is about 9-fold higher.
`O=C1N[C@H](CCC(=O)N2CC(c3ccc(N4CCC(O)(C(F)(F)F)C4)nc3)C2)CO1` (single isomer, unassigned) [Example 204, (−)- or (+)-(4R)-4-[3-[3-[6-[3-Hydroxy-3-(trifluoromethyl)pyrrolidin-1-yl]-3-pyridyl]azetidin-1-yl]-3-oxo-propyl]oxazolidin-2-one] registered an IC50 of 98 nM.
Compound `O=C1N[C@H](CCC(=O)N2CC(c3ccc(N4CCC(C(F)(F)F)C4)nc3)C2)CO1` (single isomer, unassigned) [Example 206] registered a 50% inhibitory concentration (IC50) of 16 nM.
To `O=C1N[C@H](CCC(=O)N2CC(c3cnc(N4CCC(C(F)(F)F)C4)nc3)C2)CO1` (single isomer, unassigned) [Example 208, (−)- or (+)-(4R)-4-[3-Oxo-3-[3-[2-[3-(trifluoromethyl)pyrrolidin-1-yl]pyrimidin-5-yl]azetidin-1-yl]propyl]oxazolidin-2-one] belongs 138 nM; to `O=C1NC(CCC(=O)N2CC(c3cnc(N4CCC(C(F)(F)F)C4)nc3)C2)CO1` (single isomer, unassigned) [Example 209, (+)- or (−)-(4R)-4-[3-Oxo-3-[3-[2-[3-(trifluoromethyl)pyrrolidin-1-yl]pyrimidin-5-yl]azetidin-1-yl]propyl]oxazolidin-2-one], 131 nM; to `O=C1N[C@H](CCC(=O)N2CC3(CCC(Cc4ccc(C(F)(F)F)nc4)C3)C2)CO1` (single isomer, unassigned) [Example 210, (−)- or (+)-(4R)-4-[3-Oxo-3-[6-[[6-(trifluoromethyl)-3-pyridyl]methyl]-2-azaspiro[3.4]octan-2-yl]propyl]oxazolidin-2-one], 59 nM.
Next, `O=C1NC(CCC(=O)N2CC3(CCC(Cc4ccc(C(F)(F)F)nc4)C3)C2)CO1` (single isomer, unassigned) [Example 211, (+)- or (−)-(4R)-4-[3-Oxo-3-[6-[[6-(trifluoromethyl)-3-pyridyl]methyl]-2-azaspiro[3.4]octan-2-yl]propyl]oxazolidin-2-one]: 84 nM.
The compound `CS(=O)(=O)c1cc(Cl)ccc1-c1ccc(C2CN(C(=O)CCC3CNC(=O)N3)C2)cc1` (single isomer, unassigned) [Example 217, (−)- or (+)-4-[3-[3-[4-(4-Chloro-2-methylsulfonyl-phenyl)phenyl]azetidin-1-yl]-3-oxo-propyl]imidazolidin-2-one] returned a half-inhibitory concentration (IC50) of 33 nM.
Compound `CS(=O)(=O)c1cc(Cl)ccc1-c1ccc(C2CN(C(=O)CCC3CNC(=O)N3)C2)cc1` (single isomer, unassigned) [Example 218, (+)- or (−)-4-[3-[3-[4-(4-Chloro-2-methylsulfonyl-phenyl)phenyl]azetidin-1-yl]-3-oxo-propyl]imidazolidin-2-one] showed an IC50 of 1210 nM.
To `O=C1CCC(CCC(=O)N2CC(OCc3ccc(C(F)(F)F)cc3F)C2)N1` (single isomer, unassigned; (+)) [Example 2, (+)-5-[3-[3-[[2-Fluoro-4-(trifluoromethyl)phenyl]methoxy]azetidin-1-yl]-3-oxo-propyl]pyrrolidin-2-one] belongs 19 nM; to `CC(C)(C)c1ccc(C2CN(C(=O)CCC3CCC(=O)N3)C2)cc1` (single isomer, unassigned; (+)) [Example 4, (+)-5-[3-[3-(4-tert-Butylphenyl)azetidin-1-yl]-3-oxo-propyl]pyrrolidin-2-one], 5 nM.
`O=C1CCC(CCC(=O)N2CC(c3ccc(C4(C(F)(F)F)CC4)cc3)C2)N1` (single isomer, unassigned; (+)) [Example 6, (+)-5-[3-Oxo-3-[3-[4-[1-(trifluoromethyl)cyclopropyl]phenyl]azetidin-1-yl]propyl]pyrrolidin-2-one]: the IC50 was determined as 3 nM.
For `O=C1CCC(CCC(=O)N2CC(c3ccc(-c4ccc(F)cc4F)cc3)C2)N1` (single isomer, unassigned; (+)) [Example 10, (+)-5-[3-[3-[4-(2,4-Difluorophenyl)phenyl]azetidin-1-yl]-3-oxo-propyl]pyrrolidin-2-one], the IC50 was determined as 5 nM.

The values are drawn from US11981661B2, “Heterocyclic compounds” (Hoffmann-La Roche Inc., priority 2020, dated 2024).
